Test results taken from PubChem BioAssay (NCI).
Values joined by “and” are separate entries in the source; they are usually repeats but may differ in a detail not shown here. Equal values may be shown once.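 Five concentrations, 48 hours, 96-well plates. Here, GI50 denotes the concentration required for 50% inhibition of growth. The concentration for full growth arrest is given as TGI.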

Columns and labels:
Experiment in all cases: growth of human tumour cells (NCI), 48 h
UO-31 renal = system: UO-31 renal
HOP-62 NSCLC = system: HOP-62 NSCLC
A498 renal = system: A498 renal
HCC-2998 colon = system: HCC-2998 colon
RXF 393 renal = system: RXF 393 renal
HCT-116 colon = system: HCT-116 colon
SK-MEL-2 melanoma = system: SK-MEL-2 melanoma
UACC-62 melanoma = system: UACC-62 melanoma
MCF7 breast = system: MCF7 breast
KM20L2 colon = system: KM20L2 colon

SMILES | TGI (UO-31 renal) | TGI (HOP-62 NSCLC) | TGI (A498 renal) | TGI (HCC-2998 colon) | TGI (RXF 393 renal) | TGI (HCT-116 colon) | TGI (SK-MEL-2 melanoma) | TGI (UACC-62 melanoma) | TGI (MCF7 breast) | GI50 (KM20L2 colon) | TGI (KM20L2 colon) | GI50 (UO-31 renal) | GI50 (RXF 393 renal) | GI50 (UACC-62 melanoma) | GI50 (MCF7 breast) | GI50 (HOP-62 NSCLC) | GI50 (A498 renal) | GI50 (HCC-2998 colon) | GI50 (SK-MEL-2 melanoma)
COC(=O)C1=CSC2(S1)C(C(=O)OC)=CSc1c2ssc1=Nc1ccccc1 (stereo not given) | > 100 µM | 8.67 µM | 6.54 µM | 4.25 µM | 6.12 µM | 4.06 µM | 7.36 µM | 3.52 µM | > 100 µM |  |  |  |  |  |  |  |  |  | 
CC(=O)C(O)N1C(=O)C=CC1=O (stereo not given) |  |  | > 25 µM and 31.3 µM and 39 µM |  |  |  |  |  | > 25 µM and 32900 µM | 17.9 µM and 1.9 µM | 32.8 µM and 3.51 µM | 2260 µM | 13000 µM | 7170 µM | 14200 µM |  |  |  | 
CCCCCCNC(=O)c1cnc(Cl)cn1 | 3.24 µM | 34.3 µM |  |  |  | 30.7 µM | 31 µM | 33.4 µM | 23.6 µM |  |  |  |  |  |  |  |  |  | 
COc1ccc(N2C(=O)C3c4[nH]c5c(C)cccc5c4C4CCC(C(C)(C)C)CC4C3C2=O)cc1 (stereo not given) | > 10 µM | > 10 µM | > 10 µM | 7.61 µM | > 10 µM | > 10 µM | > 10 µM | > 10 µM | > 10 µM |  |  |  |  |  |  |  |  |  | 
NC(=O)CCCC(NCc1c2ccccc2nc2ccccc12)C(=O)O (stereo not given) |  | > 100 µM |  | > 100 µM | > 100 µM |  | > 100 µM |  |  |  | > 100 µM |  |  |  |  |  |  |  | 
COc1ccc([C@@H]2ON(C)[C@H]3CN(C)C(=O)[C@@H]23)cc1 | > 100 µM | > 100 µM |  | > 100 µM |  | > 100 µM | > 100 µM |  | > 100 µM |  |  |  |  |  |  |  |  |  | 
CN1CCCCC1CCN1CCCCC1 (stereo not given) | > 100 µM | > 100 µM | > 100 µM | > 100 µM | > 100 µM | > 100 µM | > 100 µM | > 100 µM | > 100 µM |  |  |  |  |  |  |  |  |  | 
Cc1ccccc1N=Nc1ccc(N=Nc2c(O)ccc3ccccc23)c(C)c1 | > 100 µM | > 100 µM | > 100 µM |  | > 100 µM | > 100 µM | > 100 µM | > 100 µM |  |  |  |  |  |  |  |  |  |  | 
CCCCCCCSc1nc2c(C(=O)OCC)ncn2c2ccccc12 | > 100 µM | > 100 µM |  | > 100 µM | > 100 µM | > 100 µM | > 100 µM | > 100 µM |  |  | > 100 µM |  |  |  |  |  |  |  | 
CC1C(O)C2(Oc3cc4c(c5c3[C@@H](CC5O)[C@H]2C)CCC2Cc3nc5c(nc3C[C@@]42C)CC2CCC3C4=C[C@H]6O[C@@]7(O[C@@](C)(CO)C[C@@H]7O)C(C)[C@@]6(O)[C@]4(C)[C@@H](O)CC3[C@]2(C)C5)OC1(C)C (stereo not given in full) | 3.14 µM | 0.239 µM | 0.208 µM | > 3.67 µM | 0.19 µM | 1.02 µM | 0.611 µM | 0.231 µM | > 3.67 µM |  | 0.491 µM |  |  |  |  |  |  |  | 
Cc1cc(NCc2cc(Nc3ccnc4cc(Cl)ccc34)ccc2F)nc(N2CCCC2)n1 | 2.86 µM | 3.14 µM | 3.32 µM |  | 2.99 µM |  |  |  |  |  |  | 1.27 µM | 1.45 µM |  |  | 1.42 µM | 1.44 µM |  | 
O=C1c2c(c3c4ccccc4[nH]c3c3ccc4ccccc4c23)C(=O)N1CCN1CCCCC1 |  | 3.43 µM | 9.85 µM | 15.3 µM | 3.01 µM |  | 5.36 µM | 2.59 µM | 2.34 µM |  |  |  | 1.47 µM | 1.21 µM | 0.0388 µM | 1.06 µM | 1.18 µM | 1.95 µM | 2.25 µM
Cc1ccc(S(=O)(=O)NCCSCCNS(=O)(=O)c2ccc(C)cc2)cc1 | > 100 µM |  | > 100 µM | > 100 µM | > 100 µM | > 100 µM |  |  | > 100 µM |  |  |  |  |  |  |  |  |  | 
NC(=O)NN=C(CS)CS | 54.4 µM | 41.9 µM | 23.4 µM | > 77.5 µM | > 74.4 µM | > 100 µM | 45.1 µM | 72.5 µM | > 69 µM |  | 36.4 µM |  |  |  |  |  |  |  | 
